Drawing on PubChem BioAssay AID1645865 (Buhrlage Lab, Dana-Farber Cancer Institute and Novartis …, 2021), this text covers IC50 for 62 compounds.

Calls of active or inactive are those of the source.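 How the source made its calls: active means maximal inhibition of the USP30 enzyme reaching 30% or more across the dose series; inactive means the rest.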

This experiment concerns the target Ubiquitin carboxyl-terminal hydrolase 30 (Homo sapiens) (UniProt Q70CQ3). The experiment is described as follows: ubiquitin-specific protease 30 DUB inhibitors, concentration-effect, biochemical, validation of primary actives (AID 1645865). The note with it: purified USP30, Ub-rhodamine cleavage, fluorescence, 2 h.

Sequence of Ubiquitin carboxyl-terminal hydrolase 30 (Homo sapiens) (Q70CQ3 whole entry, looked up): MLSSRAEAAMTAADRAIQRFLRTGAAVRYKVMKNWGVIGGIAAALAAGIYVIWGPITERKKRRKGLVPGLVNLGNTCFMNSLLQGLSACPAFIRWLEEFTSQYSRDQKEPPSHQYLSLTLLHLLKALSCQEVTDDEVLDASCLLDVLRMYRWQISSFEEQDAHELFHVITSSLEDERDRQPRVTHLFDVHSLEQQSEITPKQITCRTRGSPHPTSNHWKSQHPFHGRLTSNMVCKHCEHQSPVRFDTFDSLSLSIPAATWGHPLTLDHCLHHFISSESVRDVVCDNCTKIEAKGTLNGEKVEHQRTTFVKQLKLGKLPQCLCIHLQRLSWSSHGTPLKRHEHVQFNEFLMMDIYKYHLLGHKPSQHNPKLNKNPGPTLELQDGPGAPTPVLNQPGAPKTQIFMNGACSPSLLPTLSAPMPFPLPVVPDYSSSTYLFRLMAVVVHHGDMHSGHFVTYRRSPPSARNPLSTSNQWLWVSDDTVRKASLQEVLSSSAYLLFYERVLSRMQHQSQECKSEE

Turning to `COc1ccc(OC)c(C2CC(=O)Nc3n[nH]c(-c4ccccc4)c32)c1` (configuration not stated), the IC50 is 25.6 µM.

With `CCn1cc2c(n1)c(=O)n(Cc1ccc(C)cc1)c(=O)n2CC(=O)Nc1ccc(F)cc1`, the IC50 is 3.47 µM.

`CCn1c(=N)n(CCOc2ccc(F)cc2)c2ccccc21`: the IC50 is 31.8 µM.

Take `CCc1nc2c(NC(=O)Nc3cccc(C(=O)OC)c3)cccn2n1`: the IC50 is > 50 µM (inactive).

In the case of `CCCC(=O)Nc1nc2ccc(CCC(=O)NCc3ccc(F)cc3)cc2s1`, the IC50 is 34.1 µM.

Consider `CNC(=O)c1cc2nc(N(C)C)n(-c3ccccc3)c2s1`, for which the IC50 is > 50 µM (inactive).

Turning to `Cc1noc(C)c1S(=O)(=O)Nc1ccc(C(=O)Nc2ccc3c(c2)OCCO3)cc1`, the IC50 was > 50 µM (inactive).

Consider `CSc1ccc(CNC(=O)CC2CCN(S(=O)(=O)c3ccc(C)cc3)CC2)cc1`, for which the IC50 was 20.2 µM.

As to `COc1cccc(NC(=O)C2CCN(C(=O)c3cc(-c4cccnc4)n[nH]3)CC2)c1`, the IC50 was > 50 µM (inactive).

`O=C(NCCc1ccccn1)c1cc(-c2ccc(Br)cc2)n[nH]1`: the IC50 is 16.4 µM.

As for `C=C1CCC2[C@](C)(CCC[C@]2(C)C(=O)OC)[C@H]1CCc1ccoc1/C=C/C(=O)O` (some centres not stated), the IC50 was > 50 µM (inactive).

For the compound `Cc1noc(C)c1COc1cccc(C(=O)Nc2cc(Cl)ccc2-n2cncn2)c1`, the IC50 was > 50 µM (inactive).

As to `COc1cccc(-c2cc(C(=O)N3CCN(c4ccc(N5CCOCC5)nn4)CC3)[nH]n2)c1`, the IC50 was 38.5 µM.

As for `CC[C@@]1(O)C[C@H](OC2CC(N(C)C)C(OC3CC(O)C(OC4CCC(=O)C(C)O4)C(C)O3)C(C)O2)c2c(cc3c(c2O)C(=O)c2c(O)ccc(O)c2C3=O)[C@H]1C(=O)OC` (some centres not stated), the IC50 was > 50 µM (inactive).

As for `O=C(C1CCCN(S(=O)(=O)N2CCCCCC2)C1)N1CCN(c2ccccc2)CC1` (configuration not stated), the IC50 was > 50 µM (inactive).

For `CCC(=O)OCc1cnc(C)c2oc(=O)c(-c3nc(-c4ccccc4)no3)cc12`, the IC50 is > 50 µM (inactive).

Consider `CCOc1ccc2c(c1)c(=O)c(C(=O)c1ccccc1)cn2CC(=O)Nc1ccccc1`, for which the IC50 is 4.27 µM.

In the case of `COc1cccc(N2CCN(C(=O)Nc3ccc4c(c3)NC(=O)CO4)CC2)c1`, the IC50 was 21.8 µM.

For `COc1ccc2nc(NC(=O)C(CC(C)C)NS(=O)(=O)c3ccc4c(c3)CCN4C(C)=O)sc2c1` (configuration not stated), the IC50 was 31.1 µM.

With `COc1cc(-c2cc(C(=O)Nc3cc(C)[nH]n3)c3ccccc3n2)cc(OC)c1OC`, the IC50 was 32.7 µM.

As for `COc1cc2c(cc1OC)C(COc1ccccc1OC)N(C(=O)c1ccc3ccccc3c1)CC2` (configuration not stated), the IC50 was > 50 µM (inactive).

In the case of `COc1ccc(NS(=O)(=O)c2cc(NC(=O)CCc3nc4ccccc4s3)ccc2C)cc1`, the IC50 was 26.2 µM.

As for `O=C(Nc1ccc2nccnc2c1)c1cccc(C(F)(F)F)c1`, the IC50 was > 50 µM (inactive).

`CCOC(=O)c1ccc(NC(=O)C[n+]2cc(-c3ccc(Cl)cc3)n3c2CCC3)cc1`: the half-inhibitory concentration (IC50) was 38.5 µM.

On to `COc1ccc(CCNC(=O)c2cc3ccccc3s2)cc1OC`, for which the IC50 was > 50 µM (inactive).

`Cc1cccc(N2C(=O)/C(=C\c3ccc4c(c3)OCCO4)c3ccccc3C2=O)c1`: the IC50 is > 50 µM (inactive).

`Cc1ccc(NC(=O)CNC(=O)c2cc3ccccc3o2)cc1`: the IC50 is 17.7 µM.

As to `Cc1ccc2[nH]c(=O)c(CN(CC3COCCO3)S(=O)(=O)c3ccc(F)cc3)cc2c1` (configuration not stated), the IC50 is 8.96 µM.

`O=C(NC1CCS(=O)(=O)C1)c1ccc(N2CCC(Cc3ccccc3)CC2)nn1` (configuration not stated): the IC50 was > 50 µM (inactive).

`CCN(CC)C(=O)c1sc(NC(=O)/C=C/c2c(F)cccc2Cl)c(C#N)c1C`: the IC50 was 1.89 µM.

For `Cc1ccc(C(=O)NCC(=O)Nc2nc3ccccc3[nH]2)c(C)c1`, the IC50 was 39.6 µM.

For `Cc1cccc(NC(=O)Nc2nnc(CC(=O)NCc3ccccc3)s2)c1`, the IC50 was 6.01 µM.

Consider `CS(=O)(=O)c1ccc(NC(=O)C2CN(c3nc4c(F)cccc4s3)C2)cc1`, for which the IC50 is 31.1 µM.

In the case of `CCS(=O)(=O)N1CCc2cc(C(=O)Nc3ccc4c(c3)OCCO4)ccc21`, the IC50 was > 50 µM (inactive).

In the case of `CC(=O)N1CCOc2cc(S(=O)(=O)N3CCCC3c3cc(C)no3)ccc21` (configuration not stated), the IC50 is > 50 µM (inactive).

On to `Cn1c(-c2nnc(SCC(=O)NCCc3ccccc3)o2)cc2ccccc21`, for which the IC50 is 7 µM.

Turning to `c1ccc2c(c1)CCc1c-2nc2ccccc2c1N1CCOCC1`, the IC50 was > 50 µM (inactive).

Turning to `Cc1c(-c2nn3c(-c4ccco4)nnc3s2)cccc1[N+](=O)[O-]`, the IC50 was 2.6 µM.

On to `Cc1cc(C)cc(N(CCC(=O)Nc2ccc(N3CCOCC3)cc2)S(=O)(=O)c2ccc(Cl)cc2)c1`, for which the IC50 was 12.3 µM.

For the compound `CN1C(=O)[C@]23CC4=CC=C[C@H](O)[C@H]4N2C(=O)[C@@]1(CO)SS3`, the IC50 was 3.78 µM.

For `Cc1ccc(-n2c(-c3ccccc3)cn3c4c(=O)[nH]c(=O)n(C)c4nc23)cc1Cl`, the IC50 was 0.222 µM.

For `CCCCc1nc2sc3c(NCCN4CCOCC4)ncnc3c2c2c1CCC2`, the IC50 was > 50 µM (inactive).

For `COc1cccc(NC(=O)C2Cc3ccccc3N2C(=O)c2ccccc2)c1` (configuration not stated), the IC50 was 22.2 µM.

Take `COc1ccccc1Nc1ncc(C(=O)NCCc2ccc(Cl)cc2)c2ccccc12`: the IC50 was 2.59 µM.

Turning to `CN1CCC(N(C)S(=O)(=O)c2ccc(NC(=O)c3cccc(OCc4ccccc4)c3)cc2)CC1`, the IC50 was 34.3 µM.

As for `Cn1ncc2c(=O)n(Cc3cccc(Cl)c3)cnc21`, the IC50 was > 50 µM (inactive).

For the compound `CC(C)N1CC[C@@H]2[C@H](C1)CN2C(=O)Nc1cccc(F)c1`, the IC50 was > 50 µM (inactive).

In the case of `CCOC(=O)c1c(C)oc2nc(CSc3ccccc3)[nH]c(=O)c12`, the IC50 was > 50 µM (inactive).

In the case of `CCOc1ccc(-c2ccc3nnc(SCC(=O)Nc4cccc(C(C)=O)c4)n3n2)cc1`, the IC50 was 3.81 µM.

As to `Cc1ccc(C)c(-n2c(N)c(C(=O)NCCc3ccccc3)c3nc4ccccc4nc32)c1`, the IC50 is > 50 µM (inactive).

In the case of `CC1Oc2cc3c(-c4c(O)cc(O)c5c(O)c6c(cc45)OC(C)C(C)C6=O)c(O)cc(O)c3c(O)c2C(=O)C1C` (configuration not stated), the IC50 is 4.98 µM.

As for `Cc1ccc(OC(=O)c2cn(-c3ccccc3)nc2-c2cccnc2)cc1`, the IC50 was > 50 µM (inactive).

As for `Cc1ccc(C(=O)NCc2ccc(C(=O)Nc3ccc(C)c(C)c3)o2)cc1`, the IC50 was 21.4 µM.

In the case of `O=C(CC1C(=O)Nc2nc(-c3ccccc3)nn21)Nc1cccc2ccccc12` (configuration not stated), the IC50 was 4.38 µM.

`COc1ccc(OC)c(-c2cc(C(=O)Nc3c(C)nn(Cc4ccccc4)c3C)no2)c1`: the IC50 is > 50 µM (inactive).

For the compound `O=C(CCCn1c(=O)[nH]c2cc(Cl)ccc2c1=O)N1CCc2ccccc2C1`, the IC50 was 35.4 µM.

Take `CC1=C(c2ccc(F)cc2)S(=O)(=O)NC1=NCC(=O)Nc1cccc(F)c1`: the IC50 is 19.8 µM.

Regarding `O=C(CC(C(=O)Nc1ccc2c(c1)OCO2)C(=O)c1ccccc1)Nc1ccc(Cl)cc1F` (configuration not stated), the concentration for half-maximal inhibition (IC50) is 2.61 µM.

Consider `N#Cc1ccc(COC(=O)c2ccc3ccccc3n2)cc1`, for which the IC50 is > 50 µM (inactive).

In the case of `CCCc1cc(=O)oc2cc(OCC(=O)NCc3ccc(OC)cc3)ccc12`, the IC50 was 12.3 µM.

`COCCNC(=O)c1ccc(-c2ccc(N3CCCCC3)nc2)cc1`: the IC50 is 22.9 µM.

With `Cc1cccc(NC(=O)CN2C(=O)COc3cc(S(=O)(=O)N4CCCC4)ccc32)c1C`, the IC50 is 21.4 µM.

Usually IC50 stands for the midpoint of a concentration-inhibition curve.
